Test system: HOP-62 complex spheroids with HUVEC/MSC, viability
Assay: Anticancer human tumor HOP-62 cell line growth inhibition [RAS];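 also: spheroids exposed to agents for seven days before readout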;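 as to viability, T/C: 100% = DMSO vehicle control viability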
Conditions: for IC50: curve of first compound; for viability, T/C: stronger effect = lower value
Procedure, shortened: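 Agents were tested in combination matrices in half-log decrements from a top concentration at or near clinical Cmax (10 microM if undetermined). Targets were multi-cell spheroids of tumour lines plus HUVEC and MSC stromal cells.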

[1] = second compound 0.000949 µM, first compound 0.0316 µM
[2] = second compound 0.000949 µM, first compound 0.1 µM
[3] = second compound 0.000949 µM, first compound 0.316 µM
[4] = second compound 0.000949 µM, first compound 1 µM
[5] = second compound 0.000949 µM, first compound 3.16 µM
[6] = second compound 0.000949 µM, first compound 10 µM
[7] = second compound 0.003 µM, first compound 0.0316 µM
[8] = second compound 0.003 µM, first compound 0.1 µM
[9] = second compound 0.003 µM, first compound 0.316 µM
[10] = second compound 0.003 µM, first compound 1 µM
[11] = second compound 0.003 µM, first compound 3.16 µM
[12] = second compound 0.003 µM, first compound 10 µM
[13] = second compound 0.00949 µM, first compound 0.0316 µM
[14] = second compound 0.00949 µM, first compound 0.1 µM
[15] = second compound 0.00949 µM, first compound 0.316 µM
[16] = second compound 0.00949 µM, first compound 1 µM
[17] = second compound 0.00949 µM, first compound 3.16 µM
[18] = second compound 0.00949 µM, first compound 10 µM
[19] = second compound 0.03 µM, first compound 0.0316 µM
[20] = second compound 0.03 µM, first compound 0.1 µM
[21] = second compound 0.03 µM, first compound 0.316 µM
[22] = second compound 0.03 µM, first compound 1 µM
[23] = second compound 0.03 µM, first compound 3.16 µM
[24] = second compound 0.03 µM, first compound 10 µM
[25] = second compound 0.0949 µM, first compound 0.0316 µM
[26] = second compound 0.0949 µM, first compound 0.1 µM
[27] = second compound 0.0949 µM, first compound 0.316 µM
[28] = second compound 0.0949 µM, first compound 1 µM
[29] = second compound 0.0949 µM, first compound 3.16 µM
[30] = second compound 0.0949 µM, first compound 10 µM
[31] = second compound 0.3 µM, first compound 0.0316 µM
[32] = second compound 0.3 µM, first compound 0.1 µM
[33] = second compound 0.3 µM, first compound 0.316 µM
[34] = second compound 0.3 µM, first compound 1 µM
[35] = second compound 0.3 µM, first compound 3.16 µM
[36] = second compound 0.3 µM, first compound 10 µM

## CCC(CC)c1cc(NC2CCC(N)C2)n2nccc2n1 (stereo not drawn) + C#Cc1c(F)ccc2cc(O)cc(-c3ncc4c(N5CC6CCC(C5)N6)nc(OCC56CCCN5CC(F)C6)nc4c3F)c12
Second compound 0.0316 µM
  IC50: 1650 nM
Second compound 0.1 µM
  IC50: 1860 nM
Second compound 0.316 µM
  IC50: 1800 nM
Second compound 1 µM
  IC50: 1750 nM
Second compound 3.16 µM
  IC50: 1540 nM
Second compound 10 µM
  IC50: 1120 nM
Second compound 0.0316 µM, first compound 0.0316 µM
  viability, T/C: 108%
Second compound 0.0316 µM, first compound 0.1 µM
  viability, T/C: 111%
Second compound 0.0316 µM, first compound 0.316 µM
  viability, T/C: 107%
Second compound 0.0316 µM, first compound 1 µM
  viability, T/C: 88.2%
Second compound 0.0316 µM, first compound 3.16 µM
  viability, T/C: 0.7%
Second compound 0.0316 µM, first compound 10 µM
  viability, T/C: 0.37%
Second compound 0.1 µM, first compound 0.0316 µM
  viability, T/C: 112%
Second compound 0.1 µM, first compound 0.1 µM
  viability, T/C: 115%
Second compound 0.1 µM, first compound 0.316 µM
  viability, T/C: 118%
Second compound 0.1 µM, first compound 1 µM
  viability, T/C: 107%
Second compound 0.1 µM, first compound 3.16 µM
  viability, T/C: 1.36%
Second compound 0.1 µM, first compound 10 µM
  viability, T/C: 1.21%
Second compound 0.316 µM, first compound 0.0316 µM
  viability, T/C: 122%
Second compound 0.316 µM, first compound 0.1 µM
  viability, T/C: 105%
Second compound 0.316 µM, first compound 0.316 µM
  viability, T/C: 111%
Second compound 0.316 µM, first compound 1 µM
  viability, T/C: 101%
Second compound 0.316 µM, first compound 3.16 µM
  viability, T/C: 0.69%
Second compound 0.316 µM, first compound 10 µM
  viability, T/C: 0.93%
Second compound 1 µM, first compound 0.0316 µM
  viability, T/C: 108%
Second compound 1 µM, first compound 0.1 µM
  viability, T/C: 104%
Second compound 1 µM, first compound 0.316 µM
  viability, T/C: 99.9%
Second compound 1 µM, first compound 1 µM
  viability, T/C: 96.7%
Second compound 1 µM, first compound 3.16 µM
  viability, T/C: 0.48%
Second compound 1 µM, first compound 10 µM
  viability, T/C: 0.25%
Second compound 3.16 µM, first compound 0.0316 µM
  viability, T/C: 83.7%
Second compound 3.16 µM, first compound 0.1 µM
  viability, T/C: 90.8%
Second compound 3.16 µM, first compound 0.316 µM
  viability, T/C: 88.3%
Second compound 3.16 µM, first compound 1 µM
  viability, T/C: 79.5%
Second compound 3.16 µM, first compound 3.16 µM
  viability, T/C: 0.74%
Second compound 3.16 µM, first compound 10 µM
  viability, T/C: 1.33%
Second compound 10 µM, first compound 0.0316 µM
  viability, T/C: 48.1%
Second compound 10 µM, first compound 0.1 µM
  viability, T/C: 47.3%
Second compound 10 µM, first compound 0.316 µM
  viability, T/C: 56%
Second compound 10 µM, first compound 1 µM
  viability, T/C: 70.2%
Second compound 10 µM, first compound 3.16 µM
  viability, T/C: 0.95%
Second compound 10 µM, first compound 10 µM
  viability, T/C: 0.56%

## CC(C)NCC(C(=O)N1CCN(c2ncnc3c2C(C)CC3O)CC1)c1ccc(Cl)cc1 (stereo not drawn) + CCn1c(-c2cccnc2C(C)OC)c2c3cc(ccc31)N1CCOC(CC(NC(=O)C(C(C)C)N(C)C(=O)C3(F)CCN(C(=O)C#CC(C)(C)N(C)C)CC3)C(=O)N3CCCC(N3)C(=O)OCC(C)(C)C2)C1
Second compound 0.000949 µM
  IC50: 3570 nM
Second compound 0.003 µM
  IC50: 2210 nM
Second compound 0.00949 µM
  IC50: 1650 nM
Second compound 0.03 µM
  IC50: 1120 nM
Second compound 0.0949 µM
  IC50: 1170 nM
Second compound 0.3 µM
  IC50: 742 nM
[1]
  viability, T/C: 98.8%
[2]
  viability, T/C: 119%
[3]
  viability, T/C: 65.4%
[4]
  viability, T/C: 76.4%
[5]
  viability, T/C: 61.6%
[6]
  viability, T/C: 20.3%
[7]
  viability, T/C: 101%
[8]
  viability, T/C: 105%
[9]
  viability, T/C: 65.3%
[10]
  viability, T/C: 67.7%
[11]
  viability, T/C: 47.1%
[12]
  viability, T/C: 21.2%
[13]
  viability, T/C: 81.7%
[14]
  viability, T/C: 100%
[15]
  viability, T/C: 80.1%
[16]
  viability, T/C: 58.9%
[17]
  viability, T/C: 38.5%
[18]
  viability, T/C: 22%
[19]
  viability, T/C: 122%
[20]
  viability, T/C: 83.4%
[21]
  viability, T/C: 72%
[22]
  viability, T/C: 61.8%
[23]
  viability, T/C: 28.3%
[24]
  viability, T/C: 23%
[25]
  viability, T/C: 79%
[26]
  viability, T/C: 80.4%
[27]
  viability, T/C: 69%
[28]
  viability, T/C: 56.2%
[29]
  viability, T/C: 25.5%
[30]
  viability, T/C: 21.1%
[31]
  viability, T/C: 73.2%
[32]
  viability, T/C: 78.9%
[33]
  viability, T/C: 59.3%
[34]
  viability, T/C: 47%
[35]
  viability, T/C: 26.4%
[36]
  viability, T/C: 16.6%

## CC(=O)OC12COC1CC(O)C1(C)C(=O)C(O)C3=C(C)C(OC(=O)C(O)C(NC(=O)OC(C)(C)C)c4ccccc4)CC(O)(C(OC(=O)c4ccccc4)C21)C3(C)C (stereo not drawn) + CCn1c(-c2cccnc2C(C)OC)c2c3cc(ccc31)N1CCOC(CC(NC(=O)C(C(C)C)N(C)C(=O)C3(F)CCN(C(=O)C#CC(C)(C)N(C)C)CC3)C(=O)N3CCCC(N3)C(=O)OCC(C)(C)C2)C1
Second compound 0.000949 µM
  IC50: < 31.6 nM
Second compound 0.003 µM
  IC50: < 31.6 nM
Second compound 0.00949 µM
  IC50: < 31.6 nM
Second compound 0.03 µM
  IC50: < 31.6 nM
Second compound 0.0949 µM
  IC50: < 31.6 nM
Second compound 0.3 µM
  IC50: < 31.6 nM
[1]
  viability, T/C: 31%
[2]
  viability, T/C: 29.6%
[3]
  viability, T/C: 20.6%
[4]
  viability, T/C: 34.7%
[5]
  viability, T/C: 48.4%
[6]
  viability, T/C: 45.6%
[7]
  viability, T/C: 32.6%
[8]
  viability, T/C: 32.1%
[9]
  viability, T/C: 37%
[10]
  viability, T/C: 33.3%
[11]
  viability, T/C: 52.1%
[12]
  viability, T/C: 39.7%
[13]
  viability, T/C: 30.8%
[14]
  viability, T/C: 31.6%
[15]
  viability, T/C: 29.4%
[16]
  viability, T/C: 36.3%
[17]
  viability, T/C: 39.3%
[18]
  viability, T/C: 43.2%
[19]
  viability, T/C: 31.4%
[20]
  viability, T/C: 32.9%
[21]
  viability, T/C: 31%
[22]
  viability, T/C: 35.4%
[23]
  viability, T/C: 33.1%
[24]
  viability, T/C: 46.4%
[25]
  viability, T/C: 34.2%
[26]
  viability, T/C: 34.1%
[27]
  viability, T/C: 36.6%
[28]
  viability, T/C: 37.3%
[29]
  viability, T/C: 34.9%
[30]
  viability, T/C: 42.1%
[31]
  viability, T/C: 28.1%
[32]
  viability, T/C: 40.2%
[33]
  viability, T/C: 31.8%
[34]
  viability, T/C: 37.9%
[35]
  viability, T/C: 33.5%
[36]
  viability, T/C: 36.9%

## CC(Nc1ccc2c(c1)OCCn1cc(N3C(=O)OCC3C(F)F)nc1-2)C(N)=O (stereo not drawn) + CCn1c(-c2cc(N3CCN(C)CC3)cnc2C(C)OC)c2c3cc(ccc31)-c1csc(n1)CC(NC(=O)C1CC1C)C(=O)N1CCCC(N1)C(=O)OCC(C)(C)C2
Second compound 0.000949 µM
  IC50: 1370 nM
Second compound 0.003 µM
  IC50: 365 nM
Second compound 0.00949 µM
  IC50: < 31.6 nM
Second compound 0.03 µM
  IC50: < 31.6 nM
Second compound 0.0949 µM
  IC50: < 31.6 nM
Second compound 0.3 µM
  IC50: < 31.6 nM
[1]
  viability, T/C: 91.4%
[2]
  viability, T/C: 69.2%
[3]
  viability, T/C: 53.9%
[4]
  viability, T/C: 61%
[5]
  viability, T/C: 49.9%
[6]
  viability, T/C: 25.9%
[7]
  viability, T/C: 75.9%
[8]
  viability, T/C: 52.7%
[9]
  viability, T/C: 47.5%
[10]
  viability, T/C: 46.2%
[11]
  viability, T/C: 36.7%
[12]
  viability, T/C: 15.7%
[13]
  viability, T/C: 48.4%
[14]
  viability, T/C: 36.8%
[15]
  viability, T/C: 36.1%
[16]
  viability, T/C: 27.4%
[17]
  viability, T/C: 19.2%
[18]
  viability, T/C: 12.6%
[19]
  viability, T/C: 33.1%
[20]
  viability, T/C: 23.2%
[21]
  viability, T/C: 22.5%
[22]
  viability, T/C: 21.5%
[23]
  viability, T/C: 13.8%
[24]
  viability, T/C: 14.7%
[25]
  viability, T/C: 27.1%
[26]
  viability, T/C: 24.8%
[27]
  viability, T/C: 20.5%
[28]
  viability, T/C: 21.5%
[29]
  viability, T/C: 12.8%
[30]
  viability, T/C: 14%
[31]
  viability, T/C: 32.5%
[32]
  viability, T/C: 20.1%
[33]
  viability, T/C: 21.3%
[34]
  viability, T/C: 17.3%
[35]
  viability, T/C: 13.4%
[36]
  viability, T/C: 15.7%
